From paper PMC9448371, “Synthesis and biological activity evaluation of 3-(hetero) arylideneindolin-2-ones as potential c-Src inhibitors” (Journal of Enzyme Inhibition and Medicinal Chemistry, 2022)
Where two headings read alike, the source gives them in different places.

Experiments:
c-Src = molecular target: T1, c-Src (Homo sapiens, UniProt P12931); assay: c-Src kinase inhibition assay (ADP-Glo Kinase Assay); assay type: biochemical; conditions: for IC50: read-out: ID50 (the source's name); for inhibition at 10 µM / % Inhibition 10 µM: 10 µM compound
T1 construct: His6 (N); purchased Merck-Millipore 14–326
Protocol: To avoid peptide adsorption to the plastic surface, protein low-binding tubes were used. ADP-Glo Kinase Assay (Promega) was then used to detect kinase activity accordingly with manufacturer’s instruction with minor modifications. In details, reactions were transferred to white 384 well-plates and stopped by adding 10 µL of ADP-Glo Reagent (Promega) for 50 min at rt. 20 μL of Detection Reagent (Promega) was then added for 30 min and the reaction read using GloMax Discover microplate reader (Promega). Data were plotted using GraphPad Prism 5.0. […] Compounds tested were assumed to act as fully ATP-competitive inhibitors. Therefore, Ki values were calculated accordingly to Equation (2).

[1] = system: human MCF7 breast cancer cell line; assay: Cytotoxicity, growth inhibition MTS assay; assay type: cell-based; conditions: mean ± SD, triplicate; for IC50: Homo sapiens, MCF7, 72 h exposure, read-out: MCF-7 (IC50)
Protocol: Cytotoxicity experiments were carried out using the human MCF7 breast cancer cell line (ATCC HTB-22). […] Compound potency was determined by a growth inhibition assay (CellTiter 96® Aqueous One Solution Cell Proliferation Assay MTS, Promega). 24 h after seeding in a 96-well plate, cells were exposed to the compounds (concentration range 1–100 µM) and 72 h later, 20 µL of 3–(4,5-dimethylthiazol-2-yl)-5–(3-carboxymethoxyphenyl)-2–(4-sulfophenyl)-2H-tetrazolium salt (MTS) was added to each well. […] Experiments were performed in triplicate.

[2] = 100 μM compound, in-house collection screen, read-out: % Inhibition Src (100 μM)
[3] = 100 µM compound, Table 2, read-out: % Inhibition 100 µM
[4] = Table 3, tested as E/Z mixtures
[5] = 100 µM compound, Table 3, tested as E/Z mixtures, read-out: % Inhibition 100 µM
[6] = Table 3, calculated from ID50 assuming fully ATP-competitive inhibition
[7] = 100 µM compound, Table 3, tested as E/Z mixtures, 100 µM

T1 sequence (P12931 whole entry): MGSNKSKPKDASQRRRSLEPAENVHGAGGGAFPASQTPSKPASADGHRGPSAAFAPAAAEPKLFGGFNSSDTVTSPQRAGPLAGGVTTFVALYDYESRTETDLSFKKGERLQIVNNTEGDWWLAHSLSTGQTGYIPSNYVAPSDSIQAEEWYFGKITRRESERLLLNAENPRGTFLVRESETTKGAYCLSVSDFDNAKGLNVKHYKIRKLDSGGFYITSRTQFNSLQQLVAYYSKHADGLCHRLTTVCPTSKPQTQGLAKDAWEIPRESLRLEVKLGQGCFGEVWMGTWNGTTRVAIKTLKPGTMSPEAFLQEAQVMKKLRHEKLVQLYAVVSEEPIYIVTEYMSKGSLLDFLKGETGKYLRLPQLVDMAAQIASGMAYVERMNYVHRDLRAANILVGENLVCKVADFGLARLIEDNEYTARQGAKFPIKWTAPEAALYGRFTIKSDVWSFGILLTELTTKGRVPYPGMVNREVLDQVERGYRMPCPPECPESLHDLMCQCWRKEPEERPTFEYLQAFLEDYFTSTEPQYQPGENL

SMILES | inhibition at 100 µM (c-Src; [2]) [%] | melting point | inhibition at 10 µM (c-Src; [4]) [%] | inhibition at 100 µM (c-Src; [5]) [%] | other results
NC(=O)n1ccc2ccc(-c3ccc(F)cc3)nc21 [Compound 1] | ~58 |  |  |  | % Inhibition Src (100 μM) (c-Src; 100 μM compound, in-house collection screen, listed as C00001, 100 µM): 58.1%
NC(=O)n1ccc2ccc(-c3ccccc3F)nc21 [Compound 2] | 28.6 |  |  |  | 
NC(=O)c1cc2cccc(-c3ccccc3)c2[nH]1 [Compound 3] | 34.8 |  |  |  | 
NC(=O)Nc1ccn([C@H]2C[C@H](O)[C@@H](CO)O2)c(=O)n1 [Compound 5] | 1.8 |  |  |  | 
NC(=O)Nc1ccn([C@@H]2O[C@H](CO)CC2(F)F)c(=O)n1 [Compound 6] | 10.3 |  |  |  | 
O=C(Nc1ccccc1)Nc1ccc(/C=C2\C(=O)N(O)c3ccccc32)cc1 [Compound 8] | 83.2 |  |  |  | IC50 (c-Src; Table 1, 100 μM ATP): 12.5 µM
O=C(Nc1ccccc1)Nc1ccc(/C=C2\C(=O)Nc3ccccc32)cc1 [Compound 9] | 84 |  |  |  | 
CN(C)c1nsc2c1C(=O)c1ccccc1C2=O [Compound 10] |  |  |  |  | % Inhibition Src (100 μM) (c-Src; 100 μM compound, in-house collection screen, 100 µM): 43%; % Inhibition Src (100 μM) (c-Src; 100 μM compound, in-house collection screen, listed as C00004, 100 µM): 43.5%
COc1ccc(-c2nc3n(n2)CC(c2ccccc2)=NN3)cc1 [Compound 14] |  |  |  |  | % Inhibition Src (100 μM) (c-Src; 100 μM compound, in-house collection screen): did not affect the enzyme activity
NC(=O)c1noc2c1CCCC2O (stereo not drawn) [Compound 19] | 12.8 |  |  |  | 
O=C1C(=Cc2cccc(Oc3ccccc3)c2)c2ccccc2N1O [Compound 22, 1-hydroxy-3–(3-phenoxybenzylidene)indolin-2-one] |  |  |  |  | inhibition at 10 µM (c-Src; Table 2): 32.1 ± 3.53%; inhibition at 100 µM (c-Src; [3]): 64.6 ± 3.8%
O=C1/C(=C\C=C\c2ccc(-c3ccccc3)cc2)c2ccccc2N1O [Compound 23] |  |  |  |  | inhibition at 10 µM (c-Src; Table 2): 22.8 ± 2.94%; inhibition at 100 µM (c-Src; [3]): 57.4 ± 6.31%
O=C1/C(=C/c2ccc(-c3ccccc3)cc2)CCN1O [Compound 24] |  |  |  |  | inhibition at 10 µM (c-Src; Table 2): 34.2 ± 0.6%; inhibition at 100 µM (c-Src; [3]): 87.5 ± 7.41%
COc1cc(OC)c(/C=C2/C(=O)Nc3ccccc32)c(OC)c1 [Compound 25] |  |  |  |  | inhibition at 10 µM (c-Src; Table 2): 23.1 ± 5.55%; inhibition at 100 µM (c-Src; [3]): 35.8 ± 3.69%
O=C1Nc2cc(Cl)ccc2/C1=C/c1cc(Br)c(O)c(Br)c1 [Compound 26] |  |  |  |  | inhibition at 10 µM (c-Src; Table 2): 67%; % Inhibition 10 µM (c-Src; Table 2, listed as C00026, 10 µM): 67.03 ± 0.10%; % Inhibition 100 µM (c-Src; 100 µM compound, Table 2, listed as C00026, 100 µM): 94.70 ± 0.30%; inhibition at 100 µM (c-Src; [3]): 95%; IC50 (c-Src; Table 2, 100 μM ATP): 5.63 µM; Ki (c-Src; Table 2, calculated from ID50 assuming fully ATP-competitive inhibition): 3.8 µM
O=C1Nc2ccccc2C1=Cc1ccc(-c2ccccc2)s1 [Compound 27, 3-((5-phenylthiophen-2-yl)methylene)indolin-2-one] |  | 257 to 258 °C |  |  | inhibition at 10 µM (c-Src; Table 2): 25.3 ± 9.71%; inhibition at 100 µM (c-Src; [3]): 45.6 ± 7.85%
COc1cc2c(cc1OC)C(=Cc1cc(Br)c(O)c(Br)c1)C(=O)N2 [Compound 29, 3–(3,5-dibromo-4-hydroxybenzylidene)-5,6-dimethoxyindolin-2-one] |  |  |  |  | inhibition at 10 µM (c-Src; Table 2): 39.8 ± 3.16%; inhibition at 100 µM (c-Src; [3]): 78.6 ± 1.32%
COc1cc2c(cc1OC)C(=Cc1ccc(-c3ccccc3)cc1)C(=O)N2 [Compound 30, 3-([1,1′-biphenyl]-4-ylmethylene)-5,6-dimethoxyindolin-2-one] |  | 231 to 232 °C |  |  | inhibition at 10 µM (c-Src; Table 2): 9.39 ± 19.2%; inhibition at 100 µM (c-Src; [3]): 42 ± 8.91%
N#Cc1ccc(C=C2C(=O)Nc3cc(Cl)ccc32)cc1 [Compound 32, 4-((6-chloro-2-oxoindolin-3-ylidene)methyl)benzonitrile] |  | 310 °C (dec.) | 35.7 ± 9.66 | 89 ± 1.35 | IC50 (c-Src; Table 3, 100 μM ATP): > 10 µM
O=C1Nc2cc(Cl)ccc2C1=Cc1ccc([N+](=O)[O-])cc1 [Compound 33, 6-chloro-3–(4-nitrobenzylidene)indolin-2-one] |  | 322 to 323 °C (dec.) | 53 ± 18.1 | 69.94 ± 0.19 | ID50 (c-Src; Table 3, 100 μM ATP): single-digit micromolar; IC50 (c-Src; Table 3, 100 μM ATP): 2.43 µM; Ki (c-Src; [6]): 1.64 µM; Ki (ATP competitive) (c-Src; [6]): single-digit micromolar; IC50 [1]: > 100 µM
CN(C)c1ccc(C=C2C(=O)Nc3cc(Cl)ccc32)cc1 [Compound 34, 6-chloro-3–(4-(dimethylamino)benzylidene)indolin-2-one] |  | 253 to 254 °C | 85 | 75.7 ± 7.63 | % Inhibition 10 µM (c-Src; Table 3, tested as E/Z mixtures, listed as C00033, 10 µM): 85.35 ± 6.98%; IC50 (c-Src; Table 3, 100 μM ATP): 0.71 µM; Ki (c-Src; [6]): 0.48 µM; MCF-7 (IC50, μM) ([1]; 72 h exposure): did not show any cytotoxic activity; IC50 [1]: > 100 µM
O=C1Nc2cc(Cl)ccc2C1=Cc1ccc(OCc2ccccc2)cc1 [Compound 37, 3–(4-(benzyloxy)benzylidene)-6-chloroindolin-2-one] |  | 239 to 240 °C (dec.) | 16.9 ± 13.9 | 84.27 ± 0.82 | 
O=C1Nc2cc(Cl)ccc2C1=Cc1cccc(Oc2ccccc2)c1 [Compound 38, 6-chloro-3–(3-phenoxybenzylidene)indolin-2-one] |  | 188 to 189 °C | 31.5 ± 3.16 | 53.6 ± 12.9 | 
COC(=O)c1ccc(COc2ccc(C=C3C(=O)Nc4cc(Cl)ccc43)cc2)cc1 [Compound 44, Methyl-4-((4-((6-chloro-2-oxoindolin-3-ylidene)methyl)phenoxy)methyl)benzoate] |  | 201 to 202 °C | 41 ± 10.3 | 92.1 ± 3.84 | % Inhibition 100 µM (c-Src; [7]): good activity
O=C1Nc2cc(Cl)ccc2C1=Cc1ccc(-c2ccccc2)s1 [Compound 48, 6-chloro-3-((5-phenylthiophen-2-yl)methylene)indolin-2-one] |  | 233 to 234 °C | 12.8 ± 1.32 | 87.7 ± 3.04 | 
Cc1nc(Nc2ncc(C(=O)Nc3c(C)cccc3Cl)s2)cc(N2CCN(CCO)CC2)n1 [Dasatinib, reference compound] |  |  |  |  | IC50 [1]: 27 ± 1 µM

More lines, main results first:

inhibition at 100 µM (c-Src; [2]) [%] | melting point | inhibition at 10 µM (c-Src; [4]) [%] | inhibition at 100 µM (c-Src; [5]) [%] | SMILES | other results
4 |  |  |  | NC(=O)n1ccc2ccc(N3CCCC3)nc21 [Compound 4] | 
77.3 |  |  |  | O=C1/C(=C\c2ccc(-c3ccccc3)cc2)c2ccccc2N1O [Compound 7] | 
2.2 |  |  |  | Nc1nsc2c1C(=O)c1ccccc1C2=O [Compound 11] | 
40 |  |  |  | COc1cc2c(cc1OC)C(c1ccc(OC(C)=O)cc1)CC(=O)N2 (stereo not drawn) [Compound 12] | 
90 |  |  |  | CC(=O)c1cccc(-c2nc3n(n2)CC(c2ccccc2)=NN3)c1 [Compound 13] | IC50 (c-Src; Table 1, 100 μM ATP): 50 µM
0.6 |  |  |  | Cc1ccc(C2=CCNC(=O)C3C2c2ccccc2N3C)cc1 (stereo not drawn) [Compound 16] | 
15.5 |  |  |  | O=C1c2cc(=O)c3cc(O)ccc3n2C2CCCN12 (stereo not drawn) [Compound 18] | 
7.7 |  |  |  | CCCN1CC2=C(CC(C)(C)CC2=O)N(c2ccc(C(N)=O)cc2)C1 [Compound 20] | 
 | 330 to 331 °C (dec.) | 37.9 ± 0.35 | 86.9 ± 2.5 | O=C1Nc2cc(Cl)ccc2C1=Cc1ccc(O)cc1 [Compound 35, 6-chloro-3–(4-hydroxybenzylidene)indolin-2-one] | IC50 (c-Src; Table 3, 100 μM ATP): > 10 µM
 | 271 to 272 °C (dec.) | 4.15 ± 1.28 | 47.2 ± 9.33 | O=C1Nc2cc(Cl)ccc2C1=Cc1ccc(C(=O)O)cc1 [Compound 36, 4-((6-chloro-2-oxoindolin-3-ylidene)methyl)benzoic acid] | % Inhibition 100 µM (c-Src; [7]): very low activity
 | 231 to 232 °C | 14.4 ± 2.09 | 34.4 ± 13.3 | O=C1Nc2cc(Cl)ccc2C1=Cc1ccc(OCC2CC2)cc1 [Compound 45, 6-Chloro-3–(4-(cyclopropylmethoxy)benzylidene)indolin-2-one] | % Inhibition 100 µM (c-Src; [7]): almost inactive
 | 197 °C (dec.) | 0 | 70 | O=C(O)COc1ccc(C=C2C(=O)Nc3cc(Cl)ccc32)cc1 [Compound 46, 2–(4-((6-Chloro-2-oxoindolin-3-ylidene)methyl)phenoxy)acetic acid] | % Inhibition 100 µM (c-Src; 100 µM compound, Table 3, tested as E/Z mixtures, listed as C00041, 100 µM): 70.56 ± 4.80%
 |  | 63.4 ± 1.06 | 94 | O=C1Nc2cc(Cl)ccc2C1=Cc1ccc(OCc2ccc(C(=O)O)cc2)cc1 [Compound 47, 4-((4-((6-chloro-2-oxoindolin-3-ylidene)methyl)phenoxy)methyl)benzoic acid] | % Inhibition 100 µM (c-Src; 100 µM compound, Table 3, tested as E/Z mixtures, listed as C00042, 100 µM): 93.88 ± 0.58%; IC50 (c-Src; Table 3, 100 μM ATP): 5.31 µM; Ki (c-Src; [6]): 3.58 µM
